According to ChEMBL document CHEMBL2177034, “Inhibition of hypoxia inducible factor-2 transcription: isolation of active modulators from marine sponges” (J Nat Prod, 2012):
The source made the active and inactive calls. The rule behind the calls is not given here.

Tests used:
[1] = test system: 786-0; experiment: Downregulation of HIF1alpha mRNA expression in human 786-0 cells at 79 uM after 48 hrs by RT-PCR analysis; assay type: functional, cell-based
[2] = test system: 786-0; experiment: Upregulation of carbonic anhydrase 9 mRNA expression in human 786-0 cells at 79 uM after 48 hrs by RT-PCR analysis; assay type: ADME, cell-based; conditions: 786-0, 48 h
[3] = target: T1, Endothelial PAS domain-containing protein 1 (Homo sapiens, UniProt Q99814); experiment: Inhibition of HIF2alpha in human 786-0 cells assessed as reduction in VEGFA mRNA expression at 79 uM after 48 hrs by RT-PCR analysis; assay type: cell-based
T1 sequence (Q99814 whole entry, the tested form may be a part): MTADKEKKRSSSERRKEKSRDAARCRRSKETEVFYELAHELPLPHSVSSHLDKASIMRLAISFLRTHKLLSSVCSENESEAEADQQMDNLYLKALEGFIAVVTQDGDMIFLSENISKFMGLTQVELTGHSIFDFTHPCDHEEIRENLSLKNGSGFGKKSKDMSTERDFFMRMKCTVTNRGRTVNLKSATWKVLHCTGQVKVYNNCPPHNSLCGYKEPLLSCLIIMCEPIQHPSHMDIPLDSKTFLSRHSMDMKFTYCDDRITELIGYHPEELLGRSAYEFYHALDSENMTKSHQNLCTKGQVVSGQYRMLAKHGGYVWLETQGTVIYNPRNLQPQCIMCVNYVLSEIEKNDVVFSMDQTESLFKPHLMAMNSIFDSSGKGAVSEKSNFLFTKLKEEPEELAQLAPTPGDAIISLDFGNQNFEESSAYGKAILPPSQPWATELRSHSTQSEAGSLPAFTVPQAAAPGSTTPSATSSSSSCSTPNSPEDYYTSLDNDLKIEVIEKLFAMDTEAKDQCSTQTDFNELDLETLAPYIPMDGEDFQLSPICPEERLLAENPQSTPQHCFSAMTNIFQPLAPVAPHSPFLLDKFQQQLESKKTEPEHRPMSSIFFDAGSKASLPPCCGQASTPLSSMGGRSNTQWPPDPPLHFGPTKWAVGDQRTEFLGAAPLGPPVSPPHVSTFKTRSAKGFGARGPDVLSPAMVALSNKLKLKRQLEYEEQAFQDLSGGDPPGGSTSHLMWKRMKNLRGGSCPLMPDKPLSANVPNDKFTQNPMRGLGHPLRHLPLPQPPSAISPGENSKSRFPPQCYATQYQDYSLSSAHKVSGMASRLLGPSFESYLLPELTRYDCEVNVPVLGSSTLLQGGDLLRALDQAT

[4] = target: T1, Endothelial PAS domain-containing protein 1; experiment: Inhibition of HIF2alpha in human 786-0 cells assessed as reduction in CCND1 mRNA expression at 79 uM after 48 hrs by RT-PCR analysis; assay type: cell-based
[5] = target: T1, Endothelial PAS domain-containing protein 1; experiment: Inhibition of HIF2alpha in human 786-0 cells assessed as reduction in GLUT1 mRNA expression at 79 uM after 48 hrs by RT-PCR analysis; assay type: cell-based
[6] = target: T1, Endothelial PAS domain-containing protein 1; experiment: Inhibition of HIF2alpha in human 786-0 cells assessed as reduction in TGFalpha mRNA expression at 79 uM after 48 hrs by RT-PCR analysis; assay type: cell-based
[7] = Cytotoxicity against human SK-RC-28 cells expressing HIF1alpha after 2 days by XTT assay; assay type: functional, cell-based; conditions: 48 h
[8] = Cytotoxicity against human RCC4 cells expressing HIF2alpha and HIF1alpha after 2 days by XTT assay; assay type: functional, cell-based; conditions: RCC4, 48 h
[9] = test system: 786-0; experiment: Cytotoxicity against human 786-0 cells expressing HIF2alpha after 2 days by XTT assay; assay type: functional, cell-based; conditions: 786-0, 48 h
[10] = test system: 786-0; experiment: Induction of total protein expression in serum deprived human 786-0 cells at 79 uM after 48 hrs relative to control; assay type: cell-based; conditions: 786-0, 48 h
[11] = test system: 786-0; experiment: Induction of HIF-mediated VEGFA expression in serum deprived human 786-0 cells at 79 uM after 48 hrs relative to control; assay type: cell-based
[12] = target: T1, Endothelial PAS domain-containing protein 1; experiment: Inhibition of HIF2alpha in human 786-0 cells expressing truncated HIF1alpha assessed as reduction in luciferase activity after 24 hrs by reporter gene assay; assay type: cell-based
[13] = target: Hypoxia-inducible factor 1-alpha (Homo sapiens) (UniProt Q16665); experiment: Inhibition of HIF1alpha in human SK-RC-28 cells assessed as reduction in VEGFA expression at 79 uM after 48 hrs by RT-PCR analysis; assay type: cell-based
Sequence of Hypoxia-inducible factor 1-alpha (Homo sapiens) (Q16665 whole entry, looked up): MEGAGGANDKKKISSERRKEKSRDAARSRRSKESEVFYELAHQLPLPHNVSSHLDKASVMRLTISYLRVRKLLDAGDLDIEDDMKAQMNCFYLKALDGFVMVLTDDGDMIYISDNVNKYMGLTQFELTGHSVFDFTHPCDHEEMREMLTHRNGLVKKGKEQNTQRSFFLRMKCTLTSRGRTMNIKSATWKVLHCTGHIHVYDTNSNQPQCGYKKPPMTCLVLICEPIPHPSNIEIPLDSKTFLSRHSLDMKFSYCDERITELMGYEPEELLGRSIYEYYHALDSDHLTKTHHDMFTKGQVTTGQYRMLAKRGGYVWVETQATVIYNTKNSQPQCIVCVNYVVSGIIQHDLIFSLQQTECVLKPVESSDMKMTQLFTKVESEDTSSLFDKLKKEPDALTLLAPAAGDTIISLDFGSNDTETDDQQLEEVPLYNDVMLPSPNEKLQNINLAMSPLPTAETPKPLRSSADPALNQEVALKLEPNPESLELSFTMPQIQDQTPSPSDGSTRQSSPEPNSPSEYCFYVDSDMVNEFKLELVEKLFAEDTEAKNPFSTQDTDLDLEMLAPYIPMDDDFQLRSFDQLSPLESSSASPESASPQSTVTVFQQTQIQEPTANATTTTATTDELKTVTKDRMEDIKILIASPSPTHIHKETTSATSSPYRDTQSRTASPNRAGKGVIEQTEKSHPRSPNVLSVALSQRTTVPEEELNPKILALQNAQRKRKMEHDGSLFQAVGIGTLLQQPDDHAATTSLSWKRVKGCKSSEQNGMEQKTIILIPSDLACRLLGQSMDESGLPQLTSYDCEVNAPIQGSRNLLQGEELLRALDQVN

[14] = target: Hypoxia-inducible factor 1-alpha (Homo sapiens) (UniProt Q16665); experiment: Inhibition of HIF1alpha in human SK-RC-28 cells assessed as reduction in carbonic anhydrase expression at 79 uM after 48 hrs by RT-PCR analysis; assay type: cell-based
[15] = Downregulation of HIF2alpha mRNA expression in human SK-RC-28 cells at 79 uM after 48 hrs by RT-PCR analysis; assay type: functional, cell-based
[16] = Downregulation of HIF1alpha mRNA expression in human SK-RC-28 cells at 79 uM after 48 hrs by RT-PCR analysis; assay type: functional, cell-based
[17] = Downregulation of CCND1 mRNA expression in human SK-RC-28 cells at 79 uM after 48 hrs by RT-PCR analysis; assay type: functional, cell-based
[18] = Downregulation of GLUT1 mRNA expression in human SK-RC-28 cells at 79 uM after 48 hrs by RT-PCR analysis; assay type: functional, cell-based
[19] = Downregulation of TGFalpha mRNA expression in human SK-RC-28 cells at 79 uM after 48 hrs by RT-PCR analysis; assay type: functional, cell-based
[20] = Downregulation of HIF2alpha mRNA expression in human RCC4 cells at 79 uM after 48 hrs by RT-PCR analysis; assay type: functional, cell-based
[21] = Downregulation of HIF1alpha mRNA expression in human RCC4 cells at 79 uM after 48 hrs by RT-PCR analysis; assay type: functional, cell-based
[22] = target: T2, Hypoxia inducible factors; HIF-1-alpha, HIF-2-alpha (Homo sapiens) (UniProt Q16665+Q99814); experiment: Inhibition of HIF1alpha/2alpha in human RCC4 cells assessed as reduction in VEGFA mRNA expression at 79 uM after 48 hrs by RT-PCR analysis; assay type: cell-based
[23] = target: T1, Endothelial PAS domain-containing protein 1; experiment: Inhibition of HIF2alpha in human RCC4 cells coexpressing HIF1alpha assessed as reduction in CCND1 mRNA expression at 79 uM after 48 hrs by RT-PCR analysis; assay type: cell-based
[24] = target: T1, Endothelial PAS domain-containing protein 1; experiment: Inhibition of HIF2alpha in human RCC4 cells coexpressing HIF1alpha assessed as reduction in GLUT1 mRNA expression at 79 uM after 48 hrs by RT-PCR analysis; assay type: cell-based
[25] = target: T1, Endothelial PAS domain-containing protein 1; experiment: Inhibition of HIF2alpha in human RCC4 cells coexpressing HIF1alpha assessed as reduction in TGFalpha mRNA expression at 79 uM after 48 hrs by RT-PCR analysis; assay type: cell-based
[26] = target: Hypoxia-inducible factor 1-alpha (Homo sapiens) (UniProt Q16665); experiment: Inhibition of HIF1alpha in human RCC4 cells coexpressing HIF2alpha assessed as decrease in carbonic anhydrase 9 mRNA expression at 79 uM after 48 hrs by RT-PCR analysis; assay type: cell-based
[27] = test system: 786-0; experiment: Downregulation of HIF2alpha mRNA expression in human 786-0 cells at 79 uM after 48 hrs by RT-PCR analysis; assay type: functional, cell-based
[28] = test system: total protein expression; experiment: Inhibition of total protein expression in serum deprived human 786-0 cells at 20 uM after 48 hrs relative to control; assay type: cell-based; conditions: 786-0 cells
[29] = test system: 786-0; experiment: Inhibition of HIF-mediated VEGFA protein expression in serum deprived human 786-0 cells at 21 uM after 48 hrs relative to control; assay type: cell-based
[30] = Downregulation of actin mRNA expression in human SK-RC-28 cells expressing HIF2alpha at 21 uM after 48 hrs by RT-PCr analysis; assay type: ADME, cell-based
[31] = Downregulation of actin mRNA expression in human RCC4 cells expressing HIF1alpha and HIF2alpha at 21 uM after 48 hrs by RT-PCr analysis; assay type: ADME, cell-based; conditions: rcc4, 48 h
[32] = test system: 786-0; experiment: Downregulation of actin mRNA expression in human […] at 21 uM after 48 hrs by RT-PCr analysis; assay type: ADME, cell-based; conditions: 786-0, 48 h
[33] = Downregulation of HIF2alpha mRNA expression in human SK-RC-28 cells at 21 uM after 48 hrs by RT-PCR analysis; assay type: functional, cell-based
[34] = Downregulation of HIF1alpha mRNA expression in human SK-RC-28 cells at 21 uM after 48 hrs by RT-PCR analysis; assay type: functional, cell-based
[35] = Downregulation of CCND1 mRNA expression in human SK-RC-28 cells at 21 uM after 48 hrs by RT-PCR analysis; assay type: functional, cell-based
[36] = Downregulation of GLUT1 mRNA expression in human SK-RC-28 cells at 21 uM after 48 hrs by RT-PCR analysis; assay type: functional, cell-based
[37] = Downregulation of TGFalpha mRNA expression in human SK-RC-28 cells at 21 uM after 48 hrs by RT-PCR analysis; assay type: functional, cell-based
[38] = target: Hypoxia-inducible factor 1-alpha (Homo sapiens) (UniProt Q16665); experiment: Inhibition of HIF1alpha in human SK-RC-28 cells assessed as reduction in VEGFA expression at 21 uM after 48 hrs by RT-PCR analysis; assay type: cell-based
[39] = target: Hypoxia-inducible factor 1-alpha (Homo sapiens) (UniProt Q16665); experiment: Inhibition of HIF1alpha in human SK-RC-28 cells assessed as reduction in carbonic anhydrase 9 expression at 21 uM after 48 hrs by RT-PCR analysis; assay type: cell-based
[40] = Downregulation of HIF2alpha mRNA expression in human RCC4 cells at 21 uM after 48 hrs by RT-PCR analysis; assay type: functional, cell-based
[41] = Downregulation of HIF1alpha mRNA expression in human RCC4 cells at 21 uM after 48 hrs by RT-PCR analysis; assay type: functional, cell-based
[42] = target: T2, Hypoxia inducible factors; HIF-1-alpha, HIF-2-alpha (Homo sapiens); experiment: Inhibition of HIF1alpha/2alpha in human RCC4 cells assessed as reduction in VEGFA mRNA expression at 21 uM after 48 hrs by RT-PCR analysis; assay type: cell-based
[43] = target: T1, Endothelial PAS domain-containing protein 1; experiment: Inhibition of HIF2alpha in human RCC4 cells coexpressing HIF1alpha assessed as reduction in CCND1 mRNA expression at 21 uM after 48 hrs by RT-PCR analysis; assay type: cell-based
[44] = target: T1, Endothelial PAS domain-containing protein 1; experiment: Inhibition of HIF2alpha in human RCC4 cells coexpressing HIF1alpha assessed as reduction in GLUT1 mRNA expression at 21 uM after 48 hrs by RT-PCR analysis; assay type: cell-based
[45] = target: T1, Endothelial PAS domain-containing protein 1; experiment: Inhibition of HIF2alpha in human RCC4 cells coexpressing HIF1alpha assessed as reduction in TGFalpha mRNA expression at 21 uM after 48 hrs by RT-PCR analysis; assay type: cell-based
[46] = target: Hypoxia-inducible factor 1-alpha (Homo sapiens) (UniProt Q16665); experiment: Inhibition of HIF1alpha in human RCC4 cells coexpressing HIF2alpha assessed as decrease in carbonic anhydrase 9 mRNA expression at 21 uM after 48 hrs by RT-PCR analysis; assay type: cell-based
[47] = test system: 786-0; experiment: Downregulation of HIF2alpha mRNA expression in human 786-0 cells at 21 uM after 48 hrs by RT-PCR analysis; assay type: functional, cell-based
[48] = test system: 786-0; experiment: Downregulation of HIF1alpha mRNA expression in human 786-0 cells at 21 uM after 48 hrs by RT-PCR analysis; assay type: functional, cell-based
[49] = target: T1, Endothelial PAS domain-containing protein 1; experiment: Inhibition of HIF2alpha in human 786-0 cells assessed as reduction in VEGFA expression at 21 uM after 48 hrs by RT-PCR analysis; assay type: cell-based
[50] = target: T1, Endothelial PAS domain-containing protein 1; experiment: Inhibition of HIF2alpha in human 786-0 cells assessed as reduction in CCND1 mRNA expression at 21 uM after 48 hrs by RT-PCR analysis; assay type: cell-based
[51] = target: T1, Endothelial PAS domain-containing protein 1; experiment: Inhibition of HIF2alpha in human 786-0 cells assessed as reduction in GLUT1 mRNA expression at 21 uM after 48 hrs by RT-PCR analysis; assay type: cell-based
[52] = target: T1, Endothelial PAS domain-containing protein 1; experiment: Inhibition of HIF2alpha in human 786-0 cells assessed as reduction in TGFalpha mRNA expression at 21 uM after 48 hrs by RT-PCR analysis; assay type: cell-based
[53] = test system: 786-0; experiment: Downregulation of carbonic anhydrase 9 expression in human 786-0 cells at 21 uM after 48 hrs by RT-PCR analysis; assay type: functional, cell-based

For `C/C=C(/C)C(=O)OCC1C2=C(C=CN1C=O)C(=O)C(C)=C(OC)C2=O` (mixture of isomers), the Activity [1] was “Active”, the Activity [2] was “Toxic” and the inhibition [3] was “Active”. The inhibition [4] was “Active”, the inhibition [5] was “Active” and the inhibition [6] was “Active”. The IC50 [7] was 38.7 µM, the IC50 [8] was 26.3 µM and the IC50 [9] was 33.8 µM. The Activity [10] was “Toxic”, the Activity [11] was “Active” and the EC50 [12] was 2.7 µM. For the same compound, the inhibition [13] was “inactive”, the inhibition [14] was “inactive” and the Activity [15] was “inactive”. The Activity [16] was “inactive”, the Activity [17] was “inactive” and the Activity [18] was “inactive”. The Activity [19] was “inactive”, the Activity [20] was “Active” and the Activity [21] was “Active”. For the same compound, the inhibition [22] was “Active”, the inhibition [23] was “Active” and the inhibition [24] was “Active”. The inhibition [25] was “Active”, the inhibition [26] was “Active” and the Activity [27] was “Active”.
Work on `C1=C/[C@H]2[C@@H]3CCCC[C@H]3C[C@@H]2NCCCN[C@@H]2C[C@@H]3CCCC[C@H]3[C@@H]2/C=C/1` [HALICLONADIAMINE] yielded an IC50 [7] of 16.1 µM, an IC50 [9] of 15.1 µM and an inhibition at 48 h, 20 µM [28] of 20%. For the same compound, the inhibition [29] was 50%, the EC50 [12] was 14.8 µM and the Activity [30] was “Toxic”. The Activity [31] was “Toxic”, the Activity [32] was “Toxic” and the Activity [33] was “Active”. The Activity [34] was “Active”, the Activity [35] was “Active” and the Activity [36] was “Active”. For the same compound, the Activity [37] was “Active”, the inhibition [38] was “Active” and the inhibition [39] was “Active”. The Activity [40] was “Active”, the Activity [41] was “Active” and the inhibition [42] was “Active”. The inhibition [43] was “Active”, the inhibition [44] was “Active” and the inhibition [45] was “Active”. The inhibition [46] was “Active”, the Activity [47] was “Active” and the Activity [48] was “Active”. For the same compound, the inhibition [49] was “Active”, the inhibition [50] was “Active” and the inhibition [51] was “Active”. For the same compound, the inhibition [52] was “Active” and the Activity [53] was “Active”.
